Where two headings read alike, the source gives them in different places.
Columns and labels:
PRMT5:MEP50 = PRMT5:MEP50 (Homo sapiens, UniProt O14744); assay: PRMT5 biochemical assay (HTRF, biotinylated H4R3 substrate), protocols 1 and 2; details: 1 μM SAM, 50 nM biotinylated H4R3, protocol 1 or 2 not given, read-out: IC50 (activity range), inhibition of PRMT5
Protocol: (§1) Inhibitory effect of compounds on PRMT5 was assessed using HTRF detection technology in biochemical assay. Biotinylated H4R3 (residues 1-21) was used as a substrate. Compounds were pre-incubated with 15-25 ng PRMT5:MEP50 per well of a 384-well plate for 30 min at room temperature in the assay buffer containing 20 mM Bicine, pH 7.6, 25 mM NaCl, 2 mM DTT, 0.01% Chicken albumin and 0.01% Tween-20. Reaction was initiated by adding 1 μM of SAM and 50 nM biotinylated H4R3. Total assay volume was 15 μL. Reaction was continued for 120 min at room temperature. Then detection solution containing Streptavidin-Eu cryptate, anti-rabbit IgG-XL-665, Histone H4R3 Dimethyl Symmetric (H4R3me2s) Polyclonal Antibody, all prepared in HTRF detection buffer was added and further incubated for 30 min at room temperature. HTRF signal was recorded in PHERAStar microplate reader. Ratio of signal obtained at 665 nm and 620 nm was used to compute the percent inhibition of compound as follows % Inhibition=100−((Test Ratio−Negative control Ratio)/(Positive control Ratio−Negative control Ratio)*100) where Positive control=PRMT5+SAM+H4R3 Negative control=PRMT5+H4R3 Biochemical Assay Protocol 2
as §1, with “2.5” for “15-25”, “4 h” for “120 min”, “control=PRMT5+H4R3” for “control=PRMT5+H4R3 Biochemical Assay Protocol 2”

Z-138 cells = assay: Anti-cancer assay (Z-138), cell viability by CellTiterGlo; type: cell-based; details: Homo sapiens, 96 h treatment, read-out: IC50 (activity range), inhibition of cell viability
Protocol: Z-138 cells were seeded at a density of 2000-3000 cells per well in culture media (IMDM+10% FBS). PANC-1 (ATCC, CRL-1469™) and MIA PaCa-2 (ATCC, CRL-1420™) cells were seeded at a density of 200-300 cells per well in culture media (DMEM+10% FBS). Cells were seeded in opaque, flat bottomed tissue culture grade 96-well plates and Z-138 cells (suspension) were seeded and treated on the same day with various concentrations of test compounds. PANC-1 and MIA PaCa-2 cells, being adherent, were kept for overnight settlement at standard cell culture conditions (37° C., 5% CO2). On the following day, cells were treated with various concentrations of test compounds. Cells were treated with test compounds for a period of 96 h, 7 days and 10 days, for Z-138 cells, PANC-1 cells and MIA PaCa-2 cells, respectively. Cell viability was assessed using CellTiterGlo™ (Promega, USA) as per manufacturer's instructions. Relative Light Units (RLU) were read in Synergy™ 2 reader (Biotek, USA). The assay measures cellular ATP as an indicator of cell viability. RLU is proportional to the number of viable cells in the respective well. % inhibition of cell viability was calculated relative to the vehicle control samples containing media with 0.1% DMSO alone as per the formula below. (Avg. of Untreated Control−Avg. of Test)×100 Avg. Of Untreated Control
The IC50 values of individual compounds were calculated with Non Linear Regression Analysis using Graph Pad Prism (Graph Pad software, Inc, USA). • Anti-Cancer Assay (Z-138)

SDMA = SDMA inhibition assay in Z-138 cells (ELISA with anti-SDMA antibody); type: cell-based; details: Homo sapiens, Z-138, 48 h, 48 h treatment
Protocol: Z-138 cells (ATCC, CRL-3001™) were seeded at a density of 1 million cells/well in transparent, flat bottomed tissue culture grade 48-well plates. Cells were treated with various concentration of test compounds for a period of 48 h. Cell lysate was prepared using 1× CST Lysis buffer (Cell Signaling Technology, USA) and 500 ng/well/50 μL of lysate in pH 9.6 carbonate buffer was coated on 96-well Maxisorb plate and incubated overnight at 4° C. The plate was washed twice in 1×PBS containing 0.05% Tween 20 and blocked in 1% BSA for 1 h at ambient temperature. Further, the plate was incubated first with primary antibody (anti-SDMA antibody; CST #13222s) at ambient temperature for 2 h and then with HRP-conjugated secondary antibody at ambient temperature for 1 h with 2 intermittent washing steps in between.
For luminiscence based detection, HRP substrates (substrate A+substrate B in a 1:1 proportion) were added followed by luminiscence reading after 30 min in Synergy™ 2 reader (Biotek, USA).
For absorbance based detection, TMB substrate was added followed by addition of STOP solution (2N H2SO4) post colour development and absorbance (excitation 450 nm and emission 540 nm) was measured in Synergy™ 2 reader (Biotek, USA).
% inhibition of SDMA was calculated relative to the vehicle control samples containing media with 0.1% DMSO alone as per the formula below. (Avg. of Untreated Control−Avg. of Test)×100 Avg. Of Untreated Control
The IC50 values of individual compounds were calculated with Non Linear Regression Analysis using Graph Pad Prism (Graph Pad software, Inc, USA).

[1] = read-out: IC50 (activity range), SDMA inhibition
[2] = range with mixed units pM/nM, units kept in the value

Sequence of PRMT5:MEP50 (O14744 whole entry, the tested form may be a part): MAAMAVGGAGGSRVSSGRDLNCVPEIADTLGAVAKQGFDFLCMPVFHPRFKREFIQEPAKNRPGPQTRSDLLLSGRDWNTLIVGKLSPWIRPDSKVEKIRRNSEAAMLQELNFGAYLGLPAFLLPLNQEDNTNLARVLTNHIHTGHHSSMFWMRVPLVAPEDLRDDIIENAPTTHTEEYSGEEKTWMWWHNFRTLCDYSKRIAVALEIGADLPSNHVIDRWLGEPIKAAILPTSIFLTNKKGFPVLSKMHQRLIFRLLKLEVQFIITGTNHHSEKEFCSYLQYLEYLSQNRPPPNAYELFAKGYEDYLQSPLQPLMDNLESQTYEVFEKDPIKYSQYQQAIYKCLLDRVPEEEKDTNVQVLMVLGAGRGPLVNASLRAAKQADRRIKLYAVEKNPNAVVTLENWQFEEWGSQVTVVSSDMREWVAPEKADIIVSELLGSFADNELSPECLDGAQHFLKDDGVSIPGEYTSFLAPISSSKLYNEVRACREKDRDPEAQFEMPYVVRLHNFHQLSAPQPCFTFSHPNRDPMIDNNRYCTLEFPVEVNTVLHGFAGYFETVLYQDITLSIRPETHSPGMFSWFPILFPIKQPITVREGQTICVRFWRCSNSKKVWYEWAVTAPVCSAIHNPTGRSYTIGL
Sequence of PRMT5:MEP50 (Q9BQA1 whole entry partner, the tested form may be a part): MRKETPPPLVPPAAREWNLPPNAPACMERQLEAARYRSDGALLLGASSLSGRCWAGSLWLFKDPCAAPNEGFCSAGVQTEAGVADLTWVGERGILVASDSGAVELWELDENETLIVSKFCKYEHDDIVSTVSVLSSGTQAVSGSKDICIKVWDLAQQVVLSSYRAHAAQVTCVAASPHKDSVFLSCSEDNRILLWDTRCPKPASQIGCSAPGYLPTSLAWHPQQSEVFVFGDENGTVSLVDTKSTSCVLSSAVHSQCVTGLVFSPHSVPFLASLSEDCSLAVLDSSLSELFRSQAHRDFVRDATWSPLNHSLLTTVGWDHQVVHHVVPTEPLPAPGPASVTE

SMILES	IC50 (PRMT5:MEP50)	IC50 (Z-138 cells)	IC50 (SDMA; [1])	IC50 (Z-138 cells; [2])	IC50 (SDMA; [2])
Nc1ncnc2c1ccn2[C@@H]1C=C(CCc2ccc(F)c3c2CNCC3)[C@@H](O)[C@H]1O [Compound 9, (1S,2R,5R)-5-(4-amino-7H-pyrrolo[2,3-d]pyrimidin-7-yl)-3-(2-(5-fluoro-1,2,3,4-tetrahydroisoquinolin-8-yl)ethyl)cyclopent-3-ene-1,2-diol]	0.25 to 0.95 nM	> 1000 pM	1100 to 50000 pM		
Nc1ncnc2c1ccn2[C@@H]1C=C(CCc2cc(C(F)F)cc3c2CNCC3)[C@@H](O)[C@H]1O [Compound 10, (1S,2R,5R)-5-(4-amino-7H-pyrrolo[2,3-d]pyrimidin-7-yl)-3-(2-(6-(difluoromethyl)-1,2,3,4-tetrahydroisoquinolin-8-yl)ethyl)cyclopent-3-ene-1,2-diol]	0.25 to 0.95 nM			101 to 1000 pM	100 to 1000 pM
Nc1ncnc2c1ccn2[C@@H]1C=C(CCc2ccc(C(F)F)c3c2CNCC3)[C@@H](O)[C@H]1O [Compound 11, (1S,2R,5R)-5-(4-amino-7H-pyrrolo[2,3-d]pyrimidin-7-yl)-3-(2-(5-(difluoromethyl)-1,2,3,4-tetrahydroisoquinolin-8-yl)ethyl)cyclopent-3-ene-1,2-diol]	0.25 to 0.95 nM	> 1000 pM	1100 to 50000 pM		
Nc1ncnc2c1ccn2[C@@H]1C=C(COc2cc(C(F)F)c(F)c3c2CNCC3)[C@@H](O)[C@H]1O [Compound 12, (1S,2R,5R)-5-(4-amino-7H-pyrrolo[2,3-d]pyrimidin-7-yl)-3-(((6-(difluoromethyl)-5-fluoro-1,2,3,4-tetrahydroisoquinolin-8-yl)oxy)methyl)cyclopent-3-ene-1,2-diol]	0.25 to 0.95 nM	> 1000 pM	1100 to 50000 pM		
Nc1ncnc2c1ccn2[C@@H]1C=C(CCc2cc(C(F)F)c(F)c3c2CNCC3)[C@@H](O)[C@H]1O [Compound 13, (1S,2R,5R)-5-(4-amino-7H-pyrrolo[2,3-d]pyrimidin-7-yl)-3-(2-(6-(difluoromethyl)-5-fluoro-1,2,3,4-tetrahydroisoquinolin-8-yl)ethyl)cyclopent-3-ene-1,2-diol]	0.25 to 0.95 nM		1100 to 50000 pM	101 to 1000 pM	
Cc1ncnc2c1ccn2[C@@H]1C=C(CCc2cc(C(F)F)cc3c2CNCC3)[C@@H](O)[C@H]1O [Compound 14, (1S,2R,5R)-3-(2-(6-(difluoromethyl)-1,2,3,4-tetrahydroisoquinolin-8-yl)ethyl)-5-(4-methyl-7H-pyrrolo[2,3-d]pyrimidin-7-yl)cyclopent-3-ene-1,2-diol]	0.25 to 0.95 nM		1100 to 50000 pM	101 to 1000 pM	
Cc1ncnc2c1ccn2[C@@H]1C=C(CCc2cc(C(F)F)c(F)c3c2CNCC3)[C@@H](O)[C@H]1O [Compound 15, (1S,2R,5R)-3-(2-(6-(difluoromethyl)-5-fluoro-1,2,3,4-tetrahydroisoquinolin-8-yl)ethyl)-5-(4-methyl-7H-pyrrolo[2,3-d]pyrimidin-7-yl)cyclopent-3-ene-1,2-diol]	0.25 to 0.95 nM			101 to 1000 pM	100 to 1000 pM
Nc1cc(=O)n([C@@H]2C=C(COc3cc(F)c4cc(Cl)c(N)nc4c3)[C@@H](O)[C@H]2O)cn1 [Compound 17, 6-amino-3-((1R,4R,5S)-3-(((2-amino-3-chloro-5-fluoroquinolin-7-yl)oxy)methyl)-4,5-dihydroxycyclopent-2-en-1-yl)pyrimidin-4 (3H)-one]	0.25 to 0.95 nM	> 1000 pM	1100 to 50000 pM		

Continued, values first:

IC50 (PRMT5:MEP50)	IC50 (Z-138 cells)	IC50 (SDMA; [1])	IC50 (Z-138 cells; [2])	IC50 (SDMA; [2])	SMILES
> 0.95 nM	> 1000 pM	1100 to 50000 pM			Cc1cc(=O)n([C@@H]2C=C(COc3cc(F)c4cc(Cl)c(N)nc4c3)[C@@H](O)[C@H]2O)cn1 [Compound 18, 3-((1R,4R,5S)-3-(((2-amino-3-chloro-5-fluoroquinolin-7-yl)oxy)methyl)-4,5-dihydroxycyclopent-2-en-1-yl)-6-methylpyrimidin-4 (3H)-one]
> 0.95 nM	> 1000 pM			100 to 1000 pM	Nc1nc2cc(OCC3=C[C@@H](n4cnc(N)c(F)c4=O)[C@H](O)[C@@H]3O)cc(F)c2cc1Cl [Compound 19, 6-amino-3-((1R,4R,5S)-3-(((2-amino-3-chloro-5-fluoroquinolin-7-yl)oxy)methyl)-4,5-dihydroxycyclopent-2-en-1-yl)-5-fluoropyrimidin-4 (3H)-one]
0.25 to 0.95 nM	> 1000 pM	1100 to 50000 pM			Nc1ncnc2c1ccn2[C@@H]1C=C(CCc2cc(Cl)c(F)c3c2CNCC3)[C@@H](O)[C@H]1O [Compound 20, (1S,2R,5R)-5-(4-amino-7H-pyrrolo[2,3-d]pyrimidin-7-yl)-3-(2-(6-chloro-5-fluoro-1,2,3,4-tetrahydroisoquinolin-8-yl)ethyl)cyclopent-3-ene-1,2-diol]
0.25 to 0.95 nM		1100 to 50000 pM	101 to 1000 pM		Nc1ncnc2c1ccn2[C@@H]1C=C(CCc2cc(F)c(F)c3c2CNCC3)[C@@H](O)[C@H]1O [Compound 21, (1S,2R,5R)-5-(4-amino-7H-pyrrolo[2,3-d]pyrimidin-7-yl)-3-(2-(5,6-difluoro-1,2,3,4-tetrahydroisoquinolin-8-yl)ethyl)cyclopent-3-ene-1,2-diol]
0.25 to 0.95 nM	> 1000 pM	1100 to 50000 pM			Nc1nc2cc(CC[C@@]34C[C@@H]3[C@@H](n3ccc5c(N)ncnc53)[C@H](O)[C@@H]4O)cnc2cc1Cl [Compound 24, (1R,2R,3S,4R,5S)-1-(2-(6-Amino-7-chloro-1,5-naphthyridin-3-yl)ethyl)-4-(4-amino-7H-pyrrolo[2,3-d]pyrimidin-7-yl)bicyclo[3.1.0]hexane-2,3-diol]
0.25 to 0.95 nM	> 1000 pM	1100 to 50000 pM			Cc1cn([C@@H]2C=C(CCc3cc(C(F)F)c(F)c4c3CNCC4)[C@@H](O)[C@H]2O)c2ncnc(N)c12 [Compound 25, (1S,2R,5R)-5-(4-amino-5-methyl-7H-pyrrolo[2,3-d]pyrimidin-7-yl)-3-(2-(6-(difluoromethyl)-5-fluoro-1,2,3,4-tetrahydroisoquinolin-8-yl)ethyl)cyclopent-3-ene-1,2-diol]
